We go through one compound from ChEMBL document CHEMBL3588744, “Structure-Based Optimization of Naphthyridones into Potent ATAD2 Bromodomain Inhibitors” (J Med Chem, 2015).

Series [1] is described as follows: Distribution coefficient, log D of the compound at pH 7.4 by chromatographic method. Format: physicochemical. Particulars: octanol/water.
The target of series [2] is Bromodomain-containing protein 3 (Homo sapiens, UniProt Q15059). The series can be described thus: Binding affinity to BRD3 in human HUT78 cells incubated for 45 mins by mass spectrometry based bromosphere chemoproteomic assay. In kind it is cell-based.
Sequence of Bromodomain-containing protein 3 (Q15059 whole entry): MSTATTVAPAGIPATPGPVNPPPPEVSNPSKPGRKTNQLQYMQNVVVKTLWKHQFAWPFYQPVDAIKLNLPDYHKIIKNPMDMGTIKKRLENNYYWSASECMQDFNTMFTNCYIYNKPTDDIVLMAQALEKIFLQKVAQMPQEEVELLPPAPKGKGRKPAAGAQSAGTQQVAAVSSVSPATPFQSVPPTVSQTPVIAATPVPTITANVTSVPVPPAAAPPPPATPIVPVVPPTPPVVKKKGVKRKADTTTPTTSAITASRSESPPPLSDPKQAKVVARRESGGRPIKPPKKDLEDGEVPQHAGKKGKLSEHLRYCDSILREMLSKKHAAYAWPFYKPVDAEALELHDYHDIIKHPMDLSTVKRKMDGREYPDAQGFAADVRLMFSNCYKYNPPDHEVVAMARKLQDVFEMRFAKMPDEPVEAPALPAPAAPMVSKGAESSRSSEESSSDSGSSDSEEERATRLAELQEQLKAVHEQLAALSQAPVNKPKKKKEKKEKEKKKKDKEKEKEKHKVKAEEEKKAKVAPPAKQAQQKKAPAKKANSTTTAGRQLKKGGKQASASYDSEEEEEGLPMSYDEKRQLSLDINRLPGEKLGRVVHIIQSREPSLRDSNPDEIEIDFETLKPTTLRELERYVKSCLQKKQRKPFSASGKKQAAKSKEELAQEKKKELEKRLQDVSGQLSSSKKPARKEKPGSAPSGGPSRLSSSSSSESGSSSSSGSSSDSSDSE
Series [3] concerns the target T1, Bromodomain-containing protein 9 (Homo sapiens, UniProt Q9H8M2).
T1 sequence (Q9H8M2 whole entry): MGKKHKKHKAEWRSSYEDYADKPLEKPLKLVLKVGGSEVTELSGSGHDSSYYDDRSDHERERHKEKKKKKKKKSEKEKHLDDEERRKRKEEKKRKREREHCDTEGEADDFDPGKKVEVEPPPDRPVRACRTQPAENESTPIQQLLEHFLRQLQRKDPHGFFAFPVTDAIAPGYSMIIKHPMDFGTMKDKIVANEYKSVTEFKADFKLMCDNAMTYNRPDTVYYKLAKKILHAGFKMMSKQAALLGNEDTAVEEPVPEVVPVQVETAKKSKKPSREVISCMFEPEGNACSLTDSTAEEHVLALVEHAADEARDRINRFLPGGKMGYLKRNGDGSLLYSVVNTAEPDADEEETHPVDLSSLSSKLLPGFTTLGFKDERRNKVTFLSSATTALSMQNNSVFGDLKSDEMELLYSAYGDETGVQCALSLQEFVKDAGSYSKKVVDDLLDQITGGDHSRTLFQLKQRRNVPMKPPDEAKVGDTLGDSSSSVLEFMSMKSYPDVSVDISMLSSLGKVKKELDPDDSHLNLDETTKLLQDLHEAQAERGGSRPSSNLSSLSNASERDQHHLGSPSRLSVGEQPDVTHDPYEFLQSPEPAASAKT
The series can be described thus: Binding affinity to BRD9 in human HUT78 cells incubated for 45 mins by mass spectrometry based bromosphere chemoproteomic assay. In kind it is cell-based.

The target of series [4] is T2, Peregrin (Homo sapiens, UniProt P55201).
T2 sequence (P55201 whole entry): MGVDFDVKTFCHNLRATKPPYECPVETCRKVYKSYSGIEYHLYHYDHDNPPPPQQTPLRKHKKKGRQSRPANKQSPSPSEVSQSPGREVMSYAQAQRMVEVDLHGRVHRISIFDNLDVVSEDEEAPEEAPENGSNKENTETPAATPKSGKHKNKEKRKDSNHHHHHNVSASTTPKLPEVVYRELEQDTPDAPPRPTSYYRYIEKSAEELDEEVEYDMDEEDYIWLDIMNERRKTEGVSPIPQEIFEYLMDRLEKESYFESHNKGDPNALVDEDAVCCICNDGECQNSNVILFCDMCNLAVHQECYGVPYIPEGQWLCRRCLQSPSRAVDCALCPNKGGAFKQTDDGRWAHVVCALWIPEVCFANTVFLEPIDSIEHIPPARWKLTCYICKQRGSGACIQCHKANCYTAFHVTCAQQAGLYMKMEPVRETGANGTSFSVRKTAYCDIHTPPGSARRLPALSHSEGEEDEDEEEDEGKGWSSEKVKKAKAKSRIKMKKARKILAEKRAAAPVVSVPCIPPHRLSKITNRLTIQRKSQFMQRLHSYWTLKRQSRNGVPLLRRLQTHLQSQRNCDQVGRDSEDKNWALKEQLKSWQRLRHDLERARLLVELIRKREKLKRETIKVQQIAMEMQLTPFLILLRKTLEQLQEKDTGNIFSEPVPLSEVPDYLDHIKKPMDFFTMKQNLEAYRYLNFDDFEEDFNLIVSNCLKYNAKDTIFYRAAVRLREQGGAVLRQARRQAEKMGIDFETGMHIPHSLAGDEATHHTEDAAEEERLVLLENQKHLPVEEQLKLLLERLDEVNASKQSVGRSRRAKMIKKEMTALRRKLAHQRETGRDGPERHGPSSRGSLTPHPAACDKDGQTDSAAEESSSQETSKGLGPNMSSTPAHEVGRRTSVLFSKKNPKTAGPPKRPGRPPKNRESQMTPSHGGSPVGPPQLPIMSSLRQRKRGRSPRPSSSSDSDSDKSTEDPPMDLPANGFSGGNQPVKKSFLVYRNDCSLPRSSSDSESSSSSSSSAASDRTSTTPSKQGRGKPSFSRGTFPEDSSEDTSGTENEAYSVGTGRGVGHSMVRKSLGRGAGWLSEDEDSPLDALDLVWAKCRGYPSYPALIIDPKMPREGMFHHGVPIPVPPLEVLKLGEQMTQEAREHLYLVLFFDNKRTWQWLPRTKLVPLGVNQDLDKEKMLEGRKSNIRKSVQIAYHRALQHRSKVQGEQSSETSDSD
Nature of the series: Binding affinity to BRPF1 in human HUT78 cells incubated for 45 mins by mass spectrometry based bromosphere chemoproteomic assay. In kind it is cell-based.

The target of series [5] is Histone acetyltransferase KAT2A (Homo sapiens, UniProt Q92830). Nature of the series: Binding affinity to KAT2A in human HUT78 cells incubated for 45 mins by mass spectrometry based bromosphere chemoproteomic assay. In kind it is cell-based.
Sequence of Histone acetyltransferase KAT2A (Q92830 whole entry): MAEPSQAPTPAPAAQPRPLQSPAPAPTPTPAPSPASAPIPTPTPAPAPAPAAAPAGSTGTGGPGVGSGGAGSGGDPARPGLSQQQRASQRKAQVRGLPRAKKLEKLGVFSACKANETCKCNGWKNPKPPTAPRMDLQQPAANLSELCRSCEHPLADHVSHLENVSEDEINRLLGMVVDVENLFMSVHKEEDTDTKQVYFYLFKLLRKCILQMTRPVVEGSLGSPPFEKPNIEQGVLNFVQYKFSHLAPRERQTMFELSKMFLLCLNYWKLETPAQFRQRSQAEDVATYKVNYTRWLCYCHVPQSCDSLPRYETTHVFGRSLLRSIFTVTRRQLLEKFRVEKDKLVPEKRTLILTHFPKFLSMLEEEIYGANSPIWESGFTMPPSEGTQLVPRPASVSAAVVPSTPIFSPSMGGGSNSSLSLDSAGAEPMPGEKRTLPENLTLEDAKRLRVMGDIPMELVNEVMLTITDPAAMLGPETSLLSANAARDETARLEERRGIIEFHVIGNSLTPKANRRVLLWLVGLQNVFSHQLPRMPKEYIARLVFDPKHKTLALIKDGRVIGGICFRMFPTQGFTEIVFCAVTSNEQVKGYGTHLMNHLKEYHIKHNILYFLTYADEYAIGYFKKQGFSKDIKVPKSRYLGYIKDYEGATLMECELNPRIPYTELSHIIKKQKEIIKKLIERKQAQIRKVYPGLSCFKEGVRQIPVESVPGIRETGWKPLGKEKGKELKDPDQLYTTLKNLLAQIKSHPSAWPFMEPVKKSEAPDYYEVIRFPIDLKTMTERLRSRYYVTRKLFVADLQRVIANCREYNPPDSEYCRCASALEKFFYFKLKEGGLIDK
The target in series [6] is Transcription initiation factor TFIID subunit 1 (Homo sapiens, UniProt P21675). The series can be described thus: Binding affinity to TAF1 in human HUT78 cells incubated for 45 mins by mass spectrometry based bromosphere chemoproteomic assay. Format: cell-based.
Sequence of Transcription initiation factor TFIID subunit 1 (P21675 whole entry): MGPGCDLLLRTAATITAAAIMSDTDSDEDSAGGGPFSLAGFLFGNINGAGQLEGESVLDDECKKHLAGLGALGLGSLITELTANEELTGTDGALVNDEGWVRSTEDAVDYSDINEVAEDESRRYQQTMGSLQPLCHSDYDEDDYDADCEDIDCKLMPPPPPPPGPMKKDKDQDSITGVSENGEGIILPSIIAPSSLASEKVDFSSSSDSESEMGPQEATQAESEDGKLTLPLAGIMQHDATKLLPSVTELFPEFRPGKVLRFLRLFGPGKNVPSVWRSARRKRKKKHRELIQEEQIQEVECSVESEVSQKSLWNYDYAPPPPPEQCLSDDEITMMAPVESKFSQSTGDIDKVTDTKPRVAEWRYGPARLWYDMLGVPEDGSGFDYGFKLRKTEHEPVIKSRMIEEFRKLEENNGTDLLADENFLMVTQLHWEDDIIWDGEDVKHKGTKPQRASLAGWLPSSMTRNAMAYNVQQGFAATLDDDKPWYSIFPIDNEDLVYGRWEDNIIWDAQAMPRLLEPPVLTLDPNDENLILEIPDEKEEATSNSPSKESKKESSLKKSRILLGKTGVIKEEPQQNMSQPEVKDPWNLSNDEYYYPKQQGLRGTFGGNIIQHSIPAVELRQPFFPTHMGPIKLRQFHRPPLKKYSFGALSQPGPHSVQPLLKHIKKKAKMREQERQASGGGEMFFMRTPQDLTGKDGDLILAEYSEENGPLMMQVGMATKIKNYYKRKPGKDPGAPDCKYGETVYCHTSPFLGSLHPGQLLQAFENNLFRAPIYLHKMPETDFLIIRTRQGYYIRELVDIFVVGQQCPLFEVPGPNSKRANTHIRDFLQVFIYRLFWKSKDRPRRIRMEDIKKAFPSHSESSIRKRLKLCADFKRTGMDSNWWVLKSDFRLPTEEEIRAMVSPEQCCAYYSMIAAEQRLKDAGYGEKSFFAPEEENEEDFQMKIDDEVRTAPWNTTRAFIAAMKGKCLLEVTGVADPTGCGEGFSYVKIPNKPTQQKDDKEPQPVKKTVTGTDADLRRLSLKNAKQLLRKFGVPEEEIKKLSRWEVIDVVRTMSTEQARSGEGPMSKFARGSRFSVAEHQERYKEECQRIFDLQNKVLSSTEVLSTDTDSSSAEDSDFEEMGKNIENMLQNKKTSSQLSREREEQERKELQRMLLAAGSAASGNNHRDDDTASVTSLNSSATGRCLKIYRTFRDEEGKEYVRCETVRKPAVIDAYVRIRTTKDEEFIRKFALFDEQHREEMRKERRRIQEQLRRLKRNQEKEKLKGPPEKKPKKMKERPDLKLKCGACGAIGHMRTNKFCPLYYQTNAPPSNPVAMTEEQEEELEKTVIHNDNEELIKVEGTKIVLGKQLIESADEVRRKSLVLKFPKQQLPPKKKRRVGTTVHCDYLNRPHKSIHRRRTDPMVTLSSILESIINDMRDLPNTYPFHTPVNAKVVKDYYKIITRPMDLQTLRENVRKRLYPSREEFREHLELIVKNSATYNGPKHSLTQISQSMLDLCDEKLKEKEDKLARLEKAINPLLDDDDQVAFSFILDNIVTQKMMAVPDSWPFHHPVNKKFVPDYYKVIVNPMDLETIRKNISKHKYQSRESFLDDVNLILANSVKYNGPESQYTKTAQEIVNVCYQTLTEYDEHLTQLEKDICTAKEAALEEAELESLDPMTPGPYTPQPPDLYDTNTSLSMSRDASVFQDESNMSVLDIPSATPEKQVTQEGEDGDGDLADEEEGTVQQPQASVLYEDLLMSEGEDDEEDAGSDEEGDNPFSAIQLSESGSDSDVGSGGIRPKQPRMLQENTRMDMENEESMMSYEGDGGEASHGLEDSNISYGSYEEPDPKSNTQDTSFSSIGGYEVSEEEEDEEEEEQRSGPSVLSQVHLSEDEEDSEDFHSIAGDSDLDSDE
For series [7], the target named is Bromodomain-containing protein 2 (Homo sapiens, UniProt P25440). Nature of the series: Binding affinity to BRD2 containing BD1 bromodomains (unknown origin) by TR-FRET assay.
Sequence of Bromodomain-containing protein 2 (P25440 whole entry): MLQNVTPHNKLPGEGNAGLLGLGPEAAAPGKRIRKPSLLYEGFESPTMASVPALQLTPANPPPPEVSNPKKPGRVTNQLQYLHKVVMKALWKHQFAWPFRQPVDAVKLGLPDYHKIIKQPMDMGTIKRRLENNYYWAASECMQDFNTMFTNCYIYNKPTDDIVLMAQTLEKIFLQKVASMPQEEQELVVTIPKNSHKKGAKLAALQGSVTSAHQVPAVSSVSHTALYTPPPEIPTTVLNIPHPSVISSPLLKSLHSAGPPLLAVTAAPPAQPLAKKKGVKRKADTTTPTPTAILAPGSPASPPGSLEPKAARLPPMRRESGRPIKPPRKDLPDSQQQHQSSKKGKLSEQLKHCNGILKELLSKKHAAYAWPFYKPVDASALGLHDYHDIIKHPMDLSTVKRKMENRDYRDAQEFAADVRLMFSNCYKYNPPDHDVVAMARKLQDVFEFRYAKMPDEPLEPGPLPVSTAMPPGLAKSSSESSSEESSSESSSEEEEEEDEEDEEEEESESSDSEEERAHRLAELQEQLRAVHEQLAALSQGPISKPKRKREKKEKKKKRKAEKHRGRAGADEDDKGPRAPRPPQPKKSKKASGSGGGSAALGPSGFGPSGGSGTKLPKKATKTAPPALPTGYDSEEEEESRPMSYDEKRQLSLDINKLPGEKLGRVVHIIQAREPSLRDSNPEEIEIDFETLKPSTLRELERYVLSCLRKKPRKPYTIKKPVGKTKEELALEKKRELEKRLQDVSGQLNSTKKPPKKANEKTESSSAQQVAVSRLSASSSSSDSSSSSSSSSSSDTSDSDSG
For series [8], the target named is Bromodomain testis-specific protein (Homo sapiens, UniProt Q58F21). The series can be described thus: Binding affinity to BRDt containing BD2 bromodomains (unknown origin) by TR-FRET assay. In general terms: Time-resolved FRET reads energy transfer from a long-lived donor to a nearby acceptor.
For series [9], the target named is Bromodomain-containing protein 4 (Homo sapiens, UniProt O60885, Y390A).

As a reminder, the chromatographic logD is a lipophilicity value derived from retention on a column. Higher therefore signals a more lipophilic compound. As usually defined, the Kd is the constant that tells how readily two partners part at equilibrium. The low end stands for higher affinity, the high end for lower affinity. A word on the IC50: it is the concentration needed to halve the response being measured. A higher IC50 goes with weaker potency in that assay. In the case of `Cc1cncc(-c2cnc(N[C@@H]3CCN(C)C[C@H]3OCC3CCS(=O)(=O)CC3)c3[nH]c(=O)c(C)cc23)c1`, the chromatographic logD in series [1] amounted to 2.3. In addition, the dissociation constant Kd in [2] was above 100 µM; in series [3], 15.8 µM; in series [4] it was above 100 µM; in series [5], above 100 µM; in series [6] it was 1.26 µM. Further, the 50% inhibitory concentration (IC50) in series [7] was above 50.1 µM; in [8], above 50.1 µM; in series [9], 79.4 µM.
